In patent US20130129675A1, “INTERFERON THERAPIES IN COMBINATION WITH BLOCKADE OF STAT3 ACTIVATION” (BOARD OF REGENTS, THE UNIVERSITY OF TEXAS SYSTEM, priority 2009, published 2013):

Experiments:
serum cytokines = assay: Serum cytokine levels (Bio-Plex); format: in vivo, C57BL/6J mice; settings: for IFN-gamma Concentration: control 1.5; for IL-1B Concentration: control 40.1; for TNF alpha Concentration: control 60.5
Description: Determination of serum cytokine levels. Groups of non-tumor bearing 4- to 6-week-old female mice were treated with either IFN-α or “empty” plasmid control, WP1193, or IFN-α in combination with WP1193 as described in FIG. 13. Blood was collected through a tail vein from mice 9 and 16 days after the first WP1193 administration. […] The assay was run according to the manufacturer's instruction (Bio-Rad) by the Immunology Core Service at MD Anderson Cancer Center (Houston, Tex.).
This experiment was reproduced twice in its entirety with identical findings.

[1] = test system: NK1.1+ NK cells from splenocytes; assay: NK cell activating receptors (flow cytometry); format: cell-based, mice; settings: WP1193 2 μM, IFN-α 20 ng/ml, 24 hours (FIGS. 6C and 6D)
Description: Spleens from 4- to 6-week-old female mice were harvested and disassociated into a single-cell suspension as described above. Splenocytes were seeded at a density of 4×10^6 cells/well in 24-well culture plates and cultured with the RPMI 1640 medium in absence or presence of WP1193 (2 μM) and/or INF-α (20 ng/ml) for 24 hours. Afterwards, the cells were harvested and washed twice in PBS with 5% FCS, resuspended in staining buffer and labeled with FITC- or PE-conjugated anti-mouse NK1.1 (eBioscience, San Diego, Calif.) to identify the NK population. […] Following incubation, the cells were washed twice with FACS buffer and then analyzed with a BD FACSCalibur with gates set for viable splenocytes.
Because we observed NK and CD8+ T cell-mediated anti-tumor cytotoxicity were enhanced with combinational therapy, to ascertain if either IFN-α, WP1193 or both were augmenting the expression of MHC or NK activating receptors or their ligands, splenocytes and B16 cells were treated with RPMI 1640 medium (control), WP1193 (2 μM), IFN-α (20 ng/ml), or IFN-α (20 ng/ml)+WP1193 (2 μM) for 24 hours. The NK-activating ligands (Rae-1, H60 and CD155) and MHC (I and II) on B16 cells and the NK-activating receptors (NKG2D, KLRD1, NKp46 and DNAM-1) on NK1.1+ NK cells were analyzed by flow cytometric analysis.

B16 target cells = assay: Ex vivo splenocyte cytotoxicity assay; format: cell-based, mice; settings: 48 h
Excerpt: Spleens from 4- to 6-week-old female mice in the above treatment schema were harvested and disassociated into a single cell suspension. After erythrocytes were lysed with 1×RBC lysis buffer (eBioscience), splenocytes were washed once with RPMI 1640 medium and were ready as effector cells for the standard cytotoxicity assay. Wang L, Yi T, Kortylewski M, Pardoll D M, Zeng D, Yu H, IL-17 Can Promote Tumor Growth Through An IL-6-Stat3 Signaling Pathway, J Exp Med 2009; 206:1457-64. For target cells, B16 cells in RPMI 1640 medium were cultured for 3 days, trypsinized, pelleted, and resuspended in FACS buffer at room temperature to achieve a concentration of 10^6 cells/ml. Carboxy-fluorescein diacetate succinimidyl ester (CFSE) stock solution (CellTrace CFSE Cell Proliferation Kit; Invitrogen, Eugene, Oreg.) was added to achieve a final concentration of 4 μM. The mixture was incubated at 37° C. for 10 minutes, and then the staining reaction was quenched by the addition of five volumes of ice-cold PBS for 5 minutes. The B16 cells were washed three times in RPMI 1640 medium and plated for the cytotoxicity assay. The ratios of splenocyte effector cells to B16 target cells were 30:1 and 100:1. After 48 h of incubation, the CFSE-labeled B16 melanoma cells were removed from the plates with trypsin-EDTA (0.05%) and analyzed by FACS. The B16 cells were stained with propidium iodide (PI; BD Biosciences) to distinguish viable cells from nonviable cells. B16 cells that were stained with CFSE and PI were considered nonviable. Flow cytometric acquisition of the B16 target cells was performed with a FACSCalibur flow cytometer (BD Biosciences), and data analysis was performed using FlowJo software (TreeStar, Ashland, Oreg.).
To ascertain the underlying in vivo immunological mechanism that is responsible for the therapeutic efficacy, we examined splenocytes cytotoxic responses directed against B16 melanoma cells. Splenocytes from control mice and mice treated with WP1193, IFN-α, or IFN-α+WP1193 were isolated and co-cultured with CFSE-labeled B16 target cells for 48 hours to assess splenocyte cytotoxicity against B16 cells. […] Furthermore, in mice treated with both IFN-α and WP1193, there was additive enhanced cytotoxic clearance of the B16 target cells compared with mice that were treated with either WP1193 or IFN-α alone (P<0.01;).

[2] = test system: intracerebral B16 melanoma / LMD; assay: Etiology of death (LMD or tumor progression) in intracerebral B16 model; format: in vivo, C57BL/6J mice; settings: for animals with LMD at death: autopsy at treatment failure, control 75%
Excerpt: Both the control group (n=8) and in those treated with a sub-therapeutic dose of WP1193 (n=9) had macroscopic evidence of LMD, 75% and 67%, respectively, (Data not shown). In contrast, in those mice treated with IFN-α (n=6) or the combination of IFN-α and WP1193 (n=4), only 17% in the former and none of the animals treated with the combination died of LMD (FIG. 5). As would be expected, in a sub-analysis within each treatment group, mice that developed LMD died sooner than did those that died of tumor. Specifically, in the control group, median survival was 16.7±0.7 days in those mice that developed LMD and 18.5±1.5 days in those that died of tumor. Furthermore, in the sub-therapeutic WP1193 group, median survival was 17.7±0.3 days in mice that developed LMD and 20±2.1 days in those that died of tumor. In contrast, within the IFN-α treatment group, the median survival of mice with progressive tumor was 25.8±2.5 days, which was further increased to 29.7±5.5 days in the combination treatment group. Within individual treatment groups there was insufficient power to draw statistically meaningful conclusions; however when we assessed all mice who died of LMD, the median survival was 16.9±0.4 days compared with 24.7±2 days for mice dying of tumor progression (P=0.0006), indicating this model system conforms to the negative prognostic influence of LMD observed in human patients.

[3] = 30:1 ratio of splenocytes to B16 Tumor Cells, control 25.2
[4] = 100:1 ratio of splenocytes to B16 Tumor Cells, control 38.1
[5] = sub-analysis within treatment group

| Compound | IFN-gamma Concentration (serum cytokines) | IL-1B Concentration (serum cytokines) [pg/mL] | TNF alpha Concentration (serum cytokines) [pg/mL] | NKG2D, KLRD1, NKp46 and DNAM-1 on NK cells [1] | % of B16 Killimg (B16 target cells; [3]) [%] | % of B16 Killimg (B16 target cells; [4]) [%] | animals with LMD at death [2] [%] | median survival in mice that developed LMD [2, 5] [days] | median survival in mice that died of tumor [2, 5] [days] |
| --- | --- | --- | --- | --- | --- | --- | --- | --- | --- |
| N#C/C(=C\c1cccc(Br)n1)C(=O)N[C@H](c1ccccc1)C1CC1 [WP1193, (S,E)-3-(6-bromopyridin-2-yl)-2-cyano-N-(cyclopropyl(phenyl)methyl)acrylamide] | Not detected | 20.0 | 60.0 | did not appear to be up-regulated | 29.8 | 42.0 | 67 | 17.7 ± 0.3 | 20 ± 2.1 |
| IFN-α | 20.2 pg/mL | 41.3 | 98.7 | did not appear to be up-regulated | 40.1 | 51.6 | 17 |  | 25.8 ± 2.5 |
